Measured values taken from PubChem BioAssay (NCI).
Converted amounts (≈) assume the structure as drawn.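 Results reflect a 48-hour exposure of cells in 96-well plates to compound at five concentrations. Abbreviation: GI50, concentration required for 50% inhibition of growth. TGI marks complete inhibition of growth.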

Tests used:
Test in all cases: DTP human tumour cell line panel, 48 h
HCC-2998 colon = system: HCC-2998 colon
A498 renal = system: A498 renal
ACHN renal = system: ACHN renal
RPMI-8226 leukemia = system: RPMI-8226 leukemia
HCT-116 colon = system: HCT-116 colon
HL-60(TB) leukemia = system: HL-60(TB) leukemia
BT-549 breast = system: BT-549 breast
SF-268 CNS = system: SF-268 CNS
SR leukemia = system: SR leukemia
NCI/ADR-RES ovarian = system: NCI/ADR-RES ovarian
SN12C renal = system: SN12C renal

Which results are given for `CCOC(=O)c1csc(NC(=O)C(C)N2CCCC2)n1` (stereo unspecified)?
TGI (HCC-2998 colon): > 100 µM; TGI (A498 renal): > 100 µM; TGI (ACHN renal): > 100 µM; TGI (RPMI-8226 leukemia): > 100 µM

How did the TGI (HCT-116 colon) turn out when `O=c1oc2ccccc2c(O)c1Cc1ccc(Cc2c(O)c3ccccc3oc2=O)cc1` was run?
Its TGI is greater than 100 µM.

What about the TGI (HCC-2998 colon) of the same compound?
The TGI was greater than 100 µM.

And the TGI (HL-60(TB) leukemia)?
Its TGI is greater than 100 µM.

And the TGI (BT-549 breast)?
The TGI was greater than 100 µM.

And the TGI (SF-268 CNS)?
Its TGI is greater than 100 µM.

And the TGI (A498 renal)?
The TGI was greater than 100 µM.

What about the TGI (SR leukemia) of the same compound?
The TGI was greater than 100 µM.

What about the TGI (NCI/ADR-RES ovarian) of the same compound?
The TGI was greater than 100 µM.

What about the TGI (SN12C renal) of the same compound?
Its TGI is greater than 100 µM.

With `O=C1NN(C2=NNC3(C(=O)N2)c2ccccc2-c2ccccc23)C(c2ccccc2)=N/C1=C/c1ccc(Cl)cc1` as the compound, how does the GI50 (HCT-116 colon) read?
The GI50 was 51.2 µg/mL (≈ 94 µM).

What about the TGI (HCT-116 colon) of the same compound?
Its TGI is greater than 150 µg/mL.

And the GI50 (HL-60(TB) leukemia)?
Its GI50 is 50.1 µg/mL (≈ 91.9 µM).

What about the TGI (HL-60(TB) leukemia) of the same compound?
The TGI was greater than 150 µg/mL.

And the GI50 (BT-549 breast)?
The GI50 was 150 µg/mL (≈ 275 µM).

What about the TGI (BT-549 breast) of the same compound?
The TGI was greater than 150 µg/mL.

And the GI50 (SF-268 CNS)?
The GI50 was 61 µg/mL (≈ 112 µM).

What about the TGI (SF-268 CNS) of the same compound?
Its TGI is greater than 150 µg/mL.

What about the GI50 (ACHN renal) of the same compound?
Its GI50 is 50.4 µg/mL (≈ 92.5 µM).

And the TGI (ACHN renal)?
The TGI was greater than 150 µg/mL.

And the GI50 (RPMI-8226 leukemia)?
Its GI50 is 63.6 µg/mL (≈ 117 µM).

What about the TGI (RPMI-8226 leukemia) of the same compound?
Its TGI is greater than 150 µg/mL.

And the GI50 (SR leukemia)?
Its GI50 is 62 µg/mL (≈ 114 µM).

What about the TGI (SR leukemia) of the same compound?
The TGI was greater than 150 µg/mL.

What about the GI50 (NCI/ADR-RES ovarian) of the same compound?
The GI50 was 53.2 µg/mL (≈ 97.7 µM).

What about the TGI (NCI/ADR-RES ovarian) of the same compound?
The TGI was greater than 150 µg/mL.

And the GI50 (SN12C renal)?
The GI50 was 53.5 µg/mL (≈ 98.2 µM).

What about the TGI (SN12C renal) of the same compound?
The TGI was greater than 150 µg/mL.
